Structures can show the parent of a compound that is named as a salt.
Assay: TGA data of UT-15 salts (thermal degradation)
Assay type: physicochemical
Conditions: thermogravimetric analysis of the isolated solid salt; temperature beyond which weight loss due to degradation occurs
Description: For all new UT-15 salts, analytical data: IH-NMR, 13C_NMR, IR, purity by HPLC, DSC data, TGA data, water contents, specific rotation were collected.

Row | SMILES | TGA: loss due to degradation beyond
1 | CCCCC[C@H](O)CC[C@@H]1[C@H]2Cc3cccc(OCC(=O)O)c3C[C@H]2C[C@H]1O [Arginine Salt] | Moisture = 2.07, degradation beyond 200 °C
2 | CCCCC[C@H](O)CC[C@@H]1[C@H]2Cc3cccc(OCC(=O)[O-])c3C[C@H]2C[C@H]1O.[K+] [Potassium Salt] | degradation beyond 250 °C
3 | CCCCC[C@H](O)CC[C@@H]1[C@H]2Cc3cccc(OCC(=O)O)c3C[C@H]2C[C@H]1O [Choline Salt] | degradation beyond 150 °C
4 | CCCCC[C@H](O)CC[C@@H]1[C@H]2Cc3cccc(OCC(=O)[O][MgH])c3C[C@H]2C[C@H]1O [Mg Salt] | degradation beyond 250 °C
5 | CCCCC[C@H](O)CC[C@@H]1[C@H]2Cc3cccc(OCC(=O)O)c3C[C@H]2C[C@H]1O [L-Lysine Salt] | degradation beyond 200 °C
6 | CCCCC[C@H](O)CC[C@@H]1[C@H]2Cc3cccc(OCC(=O)O)c3C[C@H]2C[C@H]1O [N-Methylglucamine Salt] | degradation beyond 150 °C

From patent US12709592B2, “Salts of treprostinil” (United Therapeutics Corporation, priority 2013, dated 2026)
